From patent publication US6355799B1, “Substituted benzene compounds, process for their preparation, and herbicidal and defoliant compositions containing them” (ISK Americas Incorporated, priority 1997, dated 2002)

Tests used:
Format in all cases: in vivo
[1] = system: upland rice (Oryza sp., var. Tebonnet, RICE); assay: Post-emerge test, crop safety; conditions: post-emerge, 14 days after application, rating scale 0-100
Outline: (§1)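 Applied at 15–1000 g ai/ha from acetone in 187 l/ha spray volume. Post-emergence applications included 0.25% v/v non-ionic surfactant and reached plants sown 8–21 days before. Pre-emergence applications were incorporated by surface watering. Efficacy or crop damage was rated on a 0–100 scale after 14 days.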

[2] = system: field corn (Zea mays L., var. Dekalb 535, CORN); assay: Post-emerge test, crop safety; conditions: post-emerge, 14 days after application, rating scale 0-100
Outline: as §1

[3] = system: johnsongrass (Sorghum halepense, SORHA); assay: Pre-emerge test, greenhouse herbicide activity screening; conditions: pre-emerge, 14 days after application, scale 0-100
Outline: as §1

[4] = system: velvetleaf (Abutilon theophrasti, ABUTH); assay: as above; conditions: pre-emerge, 14 days after application, scale 0-100
Outline: as §1

[5] = system: barnyardgrass (Echinochloa crus-galli, ECHCG); assay: as above; conditions: pre-emerge, 14 days after application, scale 0-100
Outline: as §1

[6] = system: ivyleaf morningglory (Ipomoea hederacea, IPOHE); assay: as above; conditions: pre-emerge, 14 days after application, scale 0-100
Outline: as §1

[7] = system: lambsquarters (Chenopodium album, CHEAL); assay: as above; conditions: pre-emerge, 14 days after application, scale 0-100
Outline: as §1

[8] = system: large crabgrass (Digitaria sanguinalis, DIGSA); assay: as above; conditions: pre-emerge, 14 days after application, scale 0-100
Outline: as §1

[9] = system: sicklepod (Cassia obtusifolia, CASOB); assay: as above; conditions: pre-emerge, 14 days after application, scale 0-100
Outline: as §1

[10] = system: green foxtail (Setaria viridis, SETVI); assay: as above; conditions: pre-emerge, 14 days after application, scale 0-100
Outline: as §1

[11] = system: johnsongrass (Sorghum halepense, SORHA); assay: Post-emerge test, greenhouse herbicide activity screening; conditions: post-emerge, 14 days after application, rating scale 0-100
Outline: (§2)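 Fourteen days after spraying, crop and weed injury was graded visually from 0, no effect, to 100, every plant dead. Test substances were dissolved in acetone and applied at 15–1000 g ai/ha with a flat-fan nozzle. Application was either pre-emergence, one day after sowing, or post-emergence at the 2–3 leaf stage.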

[12] = system: velvetleaf (Abutilon theophrasti, ABUTH); assay: as above; conditions: post-emerge, 14 days after application, rating scale 0-100
Outline: as §2

[13] = system: barnyardgrass (Echinochloa crus-galli, ECHCG); assay: as above; conditions: post-emerge, 14 days after application, rating scale 0-100
Outline: as §2

[14] = system: ivyleaf morningglory (Ipomoea hederacea, IPOHE); assay: as above; conditions: post-emerge, 14 days after application, rating scale 0-100
Outline: as §2

[15] = system: lambsquarters (Chenopodium album, CHEAL); assay: as above; conditions: post-emerge, 14 days after application, rating scale 0-100
Outline: as §2

[16] = system: large crabgrass (Digitaria sanguinalis, DIGSA); assay: as above; conditions: post-emerge, 14 days after application, rating scale 0-100
Outline: as §2

[17] = system: redroot pigweed (Amaranthus retroflexus, AMARE); assay: as above; conditions: post-emerge, 14 days after application, rating scale 0-100
Outline: as §2

[18] = system: sicklepod (Cassia obtusifolia, CASOB); assay: as above; conditions: post-emerge, 14 days after application, rating scale 0-100
Outline: as §2

[19] = system: green foxtail (Setaria viridis, SETVI); assay: as above; conditions: post-emerge, 14 days after application, rating scale 0-100
Outline: as §2

[20] = system: upland rice (Oryza sp., var. Tebonnet, RICE); assay: Pre-emerge test, crop safety; conditions: pre-emerge, 14 days after application, scale 0-100
Outline: (§3)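 Rating: 0–100 visual injury, 14 DAA. Application: acetone, 187 l/ha, 15–1000 g ai/ha, flat-fan track sprayer with nozzle 40–45 cm above soil or canopy. Post-emerge runs used 0.25% v/v surfactant on 2–3 leaf plants.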

[21] = system: field corn (Zea mays L., var. Dekalb 535, CORN); assay: Pre-emerge test, crop safety; conditions: pre-emerge, 14 days after application, scale 0-100
Outline: as §3

[22] = system: redroot pigweed (Amaranthus retroflexus, AMARE); assay: Pre-emerge test, greenhouse herbicide activity screening; conditions: pre-emerge, 14 days after application, scale 0-100
Outline: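 Compounds in acetone were track-sprayed at 187 l/ha, 15–1000 g ai/ha, onto sandy loam pots. Pre-emerge seeds were sown one day before spraying, with surface watering afterwards. Post-emerge plants were at the 2–3 leaf stage and sprayed with 0.25% v/v non-ionic surfactant. Injury was rated 0–100 at 14 days.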

CCOC(=O)C(C)Oc1ccc(-n2c(=O)cc(C(F)(F)F)n(C)c2=O)c(NC(=O)c2ccc3ccccc3c2)c1 (centres unmarked) [2-146]
RICE phytotoxicity rating (crop damage) ([1]; 63 g ai/ha): 10 | RICE phytotoxicity rating (crop damage) ([1]; 250 g ai/ha): 10 | CORN phytotoxicity rating (crop damage) ([2]; 63 g ai/ha): 10 | CORN phytotoxicity rating (crop damage) ([2]; 250 g ai/ha): 5 | phytotoxicity rating SORHA ([3]; 63 g ai/ha): 0 | phytotoxicity rating SORHA ([3]; 250 g ai/ha): 0 | phytotoxicity rating ABUTH ([4]; 63 g ai/ha): 70 | phytotoxicity rating ABUTH ([4]; 250 g ai/ha): 10 | phytotoxicity rating ECHCG ([5]; 63 g ai/ha): 0 | phytotoxicity rating ECHCG ([5]; 250 g ai/ha): 0 | phytotoxicity rating IPOHE ([6]; 63 g ai/ha): 40 | phytotoxicity rating IPOHE ([6]; 250 g ai/ha): 20 | phytotoxicity rating CHEAL ([7]; 63 g ai/ha): 90 | phytotoxicity rating CHEAL ([7]; 250 g ai/ha): 100 | phytotoxicity rating DIGSA ([8]; 63 g ai/ha): 0 | phytotoxicity rating DIGSA ([8]; 250 g ai/ha): 0 | phytotoxicity rating CASOB ([9]; 63 g ai/ha): 20 | phytotoxicity rating CASOB ([9]; 250 g ai/ha): 0 | phytotoxicity rating SETVI ([10]; 63 g ai/ha): 0 | phytotoxicity rating SETVI ([10]; 250 g ai/ha): 0 | SORHA phytotoxicity rating ([11]; 63 g ai/ha): 0 | SORHA phytotoxicity rating ([11]; 250 g ai/ha): 0 | ABUTH phytotoxicity rating ([12]; 63 g ai/ha): 70 | ABUTH phytotoxicity rating ([12]; 250 g ai/ha): 75 | ECHCG phytotoxicity rating ([13]; 63 g ai/ha): 0 | ECHCG phytotoxicity rating ([13]; 250 g ai/ha): 0 | IPOHE phytotoxicity rating ([14]; 63 g ai/ha): 40 | IPOHE phytotoxicity rating ([14]; 250 g ai/ha): 50 | CHEAL phytotoxicity rating ([15]; 63 g ai/ha): 30 | CHEAL phytotoxicity rating ([15]; 250 g ai/ha): 40 | DIGSA phytotoxicity rating ([16]; 63 g ai/ha): 0 | DIGSA phytotoxicity rating ([16]; 250 g ai/ha): 0 | AMARE phytotoxicity rating ([17]; 63 g ai/ha): 30 | AMARE phytotoxicity rating ([17]; 250 g ai/ha): 30 | CASOB phytotoxicity rating ([18]; 63 g ai/ha): 20 | CASOB phytotoxicity rating ([18]; 250 g ai/ha): 50 | SETVI phytotoxicity rating ([19]; 63 g ai/ha): 0 | SETVI phytotoxicity rating ([19]; 250 g ai/ha): 0 | phytotoxicity rating RICE (crop damage) ([20]; 63 g ai/ha): 0 | phytotoxicity rating RICE (crop damage) ([20]; 250 g ai/ha): 0 | phytotoxicity rating CORN (crop damage) ([21]; 63 g ai/ha): 0 | phytotoxicity rating CORN (crop damage) ([21]; 250 g ai/ha): 0 | phytotoxicity rating AMARE ([22]; 63 g ai/ha): 30 | phytotoxicity rating AMARE ([22]; 250 g ai/ha): 80
